Reference: article PMC8119466, “A screen of FDA-approved drugs identifies inhibitors of protein tyrosine phosphatase 4A3 (PTP4A3 or PRL-3)” (Scientific Reports, 2021)
Counter-ions that a name gives are not always drawn. Like-named read-outs stand apart in the source and are kept apart here.

Experiments:
Assay type in all cases: biochemical
[1] = target: T1, recombinant PRL-1 (Homo sapiens, UniProt Q93096); assay: In vitro phosphatase assay (DiFMUP hydrolysis), PRL-1
T1 construct: 6xHis (N, cleaved yes); made in house; host or cells: E. coli One Shot BL21 Star
T1 sequence (Q93096 1-173): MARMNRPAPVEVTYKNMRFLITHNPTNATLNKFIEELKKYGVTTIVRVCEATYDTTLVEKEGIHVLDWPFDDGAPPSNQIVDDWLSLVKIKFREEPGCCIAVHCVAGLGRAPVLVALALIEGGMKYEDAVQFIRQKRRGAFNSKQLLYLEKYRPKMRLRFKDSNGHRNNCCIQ

[2] = target: T2, recombinant PRL-2 (Homo sapiens, UniProt Q12974); assay: In vitro phosphatase assay (DiFMUP hydrolysis), PRL-2;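 further: PRL-2 activity read as DiFMUP hydrolysis after 20 min at room temperature with drug, enzyme first pre-reduced at 4 °C for 20 min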
T2 construct: 6xHis (N, cleaved yes); made in house; host or cells: E. coli One Shot BL21 Star
T2 sequence (Q12974 1-167): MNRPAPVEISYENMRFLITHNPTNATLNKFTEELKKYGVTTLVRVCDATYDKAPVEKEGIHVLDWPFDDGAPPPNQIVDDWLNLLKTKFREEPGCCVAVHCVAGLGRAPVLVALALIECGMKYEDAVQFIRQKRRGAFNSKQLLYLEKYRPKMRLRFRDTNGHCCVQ

[3] = target: T3, recombinant PRL-3 (Homo sapiens, UniProt O75365); assay: In vitro phosphatase assay (DiFMUP hydrolysis), PRL-3
T3 construct: 6xHis (N, cleaved yes); made in house; host or cells: E. coli One Shot BL21 Star

[4] = FDA-approved drug screen, compared to DMSO
[5] = FDA-approved drug screen, compared to DMSO, listed as Eltrombopag
[6] = FDA-approved drug screen, activity compared to DMSO

T3 sequence (O75365 whole entry): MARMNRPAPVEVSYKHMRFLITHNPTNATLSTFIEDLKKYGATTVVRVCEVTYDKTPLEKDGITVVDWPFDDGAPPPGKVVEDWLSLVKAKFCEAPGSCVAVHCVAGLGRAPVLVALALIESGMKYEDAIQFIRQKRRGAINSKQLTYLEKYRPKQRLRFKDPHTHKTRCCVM

Structure (SMILES)	% Phosphatase Activity (compared to DMSO) PRL-1 [1, 4] [%]	% Phosphatase Activity (compared to DMSO) PRL-2 [2, 4] [%]	% Phosphatase Activity (compared to DMSO) PRL-3 [3, 4] [%]	also measured
CC(=O)C1C(=O)C=C(C)OC1=O (stereo not drawn) [Dehydroacetic acid]	99	98	90	–
Cc1onc(-c2ccccc2Cl)c1C(=O)N[C@@H]1C(=O)N2[C@@H]1SC(C)(C)[C@@H]2C(=O)O [Cloxacillin Sodium]	98	104	87	–
Br.COc1ccc2c(c1)[C@]13CCCC[C@@H]1[C@H](C2)N(C)CC3.O [Dextromethorphan (hydrobromide hydrate)]	104	118	92	–
COc1cc(/C=C/C(=O)N2CCN(CC(=O)N3CCCC3)CC2)cc(OC)c1OC.O=C(O)/C=C\C(=O)O [Cinepazide maleate]	112	134	113	–
Cn1c(=O)c2[nH]cnc2n(C)c1=O [Aminophylline]	97	96	62	–
COc1cc(Nc2ncc3c(n2)-c2ccc(Cl)cc2C(c2c(F)cccc2OC)=NC3)ccc1C(=O)O [Alisertib (MLN8237)]	85	96	81	–
CN1C(C(=O)Nc2ccccn2)=C(O)c2sc(Cl)cc2S1(=O)=O [Lornoxicam]	73	84	81	–
CC1=NN(c2ccc(C)c(C)c2)C(=O)/C1=N\Nc1cccc(-c2cccc(C(=O)O)c2)c1O [Eltromobag, reference compound]	–	–	–	IC50 ([1]; 2.5 µM protein, DiFMUP at KM, read-out: Calculated IC50, PRL-1 phosphatase activity): 56 ± 10 µM; % Phosphatase Activity (compared to DMSO) PRL-1 [1, 5]: 57%; IC50 ([2]; 2.5 µM protein, DiFMUP at KM, read-out: Calculated IC50, PRL-2 phosphatase activity): > 100 µM; % Phosphatase Activity (compared to DMSO) PRL-2 [2, 5]: 68%; IC50 ([3]; 2.5 µM protein, DiFMUP at KM, read-out: Calculated IC50, PRL-3 phosphatase activity): 26 ± 11 µM; % Phosphatase Activity (compared to DMSO) PRL-3 [3, 5]: 66%
O=c1[nH]c2ccccc2n1CCCN1CCC(n2c(=O)[nH]c3cc(Cl)ccc32)CC1 [Domperidone]	118	112	79	–
Cc1ccc(NC(=O)c2ccc(CN3CCN(C)CC3)cc2)cc1Nc1nc(-c2cccnc2)cs1 [Masitinib (AB1010)]	115	117	92	–
CN(C)Cc1ccc(S(=O)(=O)n2ccc(/C=C/C(=O)NO)c2)cc1 [Resminostat]	102	113	90	–
NC(=O)NO [Hydroxyurea]	91	113	100	–
Cc1cn([C@H]2C[C@H](N=[N+]=[N-])[C@@H](CO)O2)c(=O)[nH]c1=O [Zidovudine]	–	–	–	% Phosphatase Activity (compared to DMSO) PRL-1 [1, 6]: 100%; % Phosphatase Activity (compared to DMSO) PRL-2 [2, 6]: 112%; % Phosphatase Activity (compared to DMSO) PRL-3 [3, 6]: 85%
CCOC(=O)c1cncn1[C@H](C)c1ccccc1 [Etomidate]	98	91	79	–
COc1ccc(C[C@H](N)C(=O)N[C@H]2[C@@H](O)[C@H](n3cnc4c(N(C)C)ncnc43)O[C@@H]2CO)cc1.Cl.Cl [Puromycin 2HCl]	106	101	113	–
O=C1CN2Cc3c(ccc(Cl)c3Cl)N=C2N1 [Anagrelide HCl]	93	91	80	–
CN(C)CCOc1ccc(/C(=C(/CCCl)c2ccccc2)c2ccccc2)cc1 [Toremifene Citrate]	–	–	–	% Phosphatase Activity (compared to DMSO) PRL-1 [1, 6]: 95%; % Phosphatase Activity (compared to DMSO) PRL-2 [2, 6]: 105%; % Phosphatase Activity (compared to DMSO) PRL-3 [3, 6]: 103%
Nc1nc(NC2CC2)c2ncn([C@H]3C=C[C@@H](CO)C3)c2n1 [Abacavir sulfate]	88	85	111	–
Nc1nc(Cl)nc2c1ncn2[C@H]1C[C@H](O)[C@@H](CO)O1 [Cladribine]	98	93	82	–

Structure (SMILES)	% Phosphatase Activity (compared to DMSO) PRL-1 [1, 4] [%]	% Phosphatase Activity (compared to DMSO) PRL-2 [2, 4] [%]	% Phosphatase Activity (compared to DMSO) PRL-3 [3, 4] [%]	also measured
Nc1c(CC(=O)[O-])cccc1C(=O)c1ccccc1.O.[Na+] [Amfenac Sodium Monohydrate]	89	108	67	–
COC(=O)[C@H]1[C@H]2C[C@@H]3c4[nH]c5cc(OC)ccc5c4CCN3C[C@H]2C[C@@H](OC(=O)c2cc(OC)c(OC)c(OC)c2)[C@@H]1OC [Reserpine]	110	105	92	–
O=c1[nH]c(=O)c2ccccc2o1 [Carsalam]	96	95	80	–
Cc1nc(C)c(Cl)c(O)c1Cl [Clopidol]	112	109	80	–
CN(C)c1nc(N(C)C)nc(N(C)C)n1 [Altretamine]	89	89	71	–
CCOC(=O)C1=C[C@@H](OC(CC)CC)[C@H](NC(C)=O)[C@@H](N)C1 [Oseltamivir Phosphate]	91	102	94	–
C#C[C@]1(O)CC[C@H]2[C@@H]3CCC4=CC(=O)CC[C@@H]4[C@H]3C(=C)C[C@@]21CC [Etonogestrel]	90	85	80	–
C[C@@H](O[C@H]1OCCN(Cc2n[nH]c(=O)[nH]2)[C@H]1c1ccc(F)cc1)c1cc(C(F)(F)F)cc(C(F)(F)F)c1 [Aprepitant]	104	94	80	–
Cn1nnc(-c2ccc(-c3ccc(N4C[C@H](COP(=O)(O)O)OC4=O)cc3F)cn2)n1 [Tedizolid Phosphate]	–	–	–	% Phosphatase Activity (compared to DMSO) PRL-1 [1, 6]: 97%; % Phosphatase Activity (compared to DMSO) PRL-2 [2, 6]: 97%; % Phosphatase Activity (compared to DMSO) PRL-3 [3, 6]: 87%
CC(C)OC(=O)OCOP(=O)(CO[C@H](C)Cn1cnc2c(N)ncnc21)OCOC(=O)OC(C)C [Tenofovir Disoproxil Fumarate]	–	–	–	% Phosphatase Activity (compared to DMSO) PRL-1 [1, 6]: 95%; % Phosphatase Activity (compared to DMSO) PRL-2 [2, 6]: 93%; % Phosphatase Activity (compared to DMSO) PRL-3 [3, 6]: 82%
COc1cc(/C=C/C(=O)CC(=O)/C=C/c2ccc(O)c(OC)c2)ccc1O [Curcumin]	78	77	85	–
COCCOC(=O)C1=C(C)NC(C)=C(C(=O)OC(C)C)C1c1cccc([N+](=O)[O-])c1 (stereo not drawn) [Nimodipine]	76	72	88	–
O=C1CC[C@@]2(O)[C@H]3Cc4ccc(O)c5c4[C@@]2(CCN3CC2CC2)[C@H]1O5 [Naltrexone HCl]	100	120	95	–
Nc1ncnc2c1ncn2[C@@H]1O[C@H](CO)[C@@H](O)[C@H]1O [Adenosine]	100	93	87	–
Cn1cnc2c(F)c(Nc3ccc(Br)cc3Cl)c(C(=O)NOCCO)cc21 [Selumetinib (AZD6244)]	92	93	87	–
CN(C)CCN(Cc1ccccc1)c1ccccn1 [Tripelennamine HCl]	–	–	–	% Phosphatase Activity (compared to DMSO) PRL-1 [1, 6]: 91%; % Phosphatase Activity (compared to DMSO) PRL-2 [2, 6]: 119%; % Phosphatase Activity (compared to DMSO) PRL-3 [3, 6]: 112%
Nc1ccc(O)c(C(=O)O)c1 [Mesalamine]	112	131	82	–
Cc1ccc(C(=O)Nc2ccc(CN3CCN(C)CC3)c(C(F)(F)F)c2)cc1C#Cc1cnc2cccnn12 [Ponatinib (AP24534)]	396	417	319	–
Cl.c1ccc(C2CN3CCSC3=N2)cc1 (stereo not drawn) [Tetramisole HCl]	–	–	–	% Phosphatase Activity (compared to DMSO) PRL-1 [1]: 97%; % Phosphatase Activity (compared to DMSO) PRL-2 [2]: 83%; % Phosphatase Activity (compared to DMSO) PRL-3 [3]: 102%
